According to patent publication US20100056526A1, “HETEROMONOCYCLIC COMPOUND AND USE THEREOF” (Takeda Pharmaceutical Company Limited, priority 2006, published 2010):
Where a name gives a salt, the structure may show the parent alone. Read-outs that look alike come from different tables or passages of the source.

Experiments:
[1] = target: T1, human AT1 receptor (Homo sapiens, UniProt P30556); assay: Binding assay using human AT1 receptor-expressing CHO-K1 cell membrane fraction ([125I]-angiotensin II); details: 22.5 pM [125I]-angiotensin II, 9 μg AT1 membrane, 1 hr room temperature; read-out: AT1 receptor binding inhibitory action (IC50 (nM))
T1 construct: expressed in transfected cells; host or cells: CHO-K1
T1 sequence (P30556 1-359): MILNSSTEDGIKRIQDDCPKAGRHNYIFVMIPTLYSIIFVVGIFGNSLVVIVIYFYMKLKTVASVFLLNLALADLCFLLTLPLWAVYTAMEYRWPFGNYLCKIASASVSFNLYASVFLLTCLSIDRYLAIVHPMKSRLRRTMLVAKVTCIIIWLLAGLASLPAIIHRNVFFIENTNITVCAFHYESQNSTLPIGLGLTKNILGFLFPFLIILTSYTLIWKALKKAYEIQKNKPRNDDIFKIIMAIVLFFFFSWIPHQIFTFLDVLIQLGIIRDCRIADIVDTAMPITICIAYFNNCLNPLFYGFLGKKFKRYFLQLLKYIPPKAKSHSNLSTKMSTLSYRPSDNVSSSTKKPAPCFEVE
Protocol: The membrane fraction for human AT1 receptor binding assay was prepared as follows. CHO-K1 cell capable of stable expression of human AT1 receptor was cultured, recovered, suspended in homogenize buffer (10 mM NaHCO3 (pH 7.4), 5 mM EDTA, 1×Complete EDTA free) [manufactured by Roche, Switzerland], and homogenized. The homogenate was centrifuged at low-speed (900×g, 10 min, 4° C.), and the supernatant was recovered and ultracentrifuged (90,000×g, 1 hr, 4° C.). The supernatant was discarded, and the pellets were resuspended in resuspension buffer (50 mM Tris (pH 7.4), 1 mM EDTA, 1×Complete EDTA free).
The binding assay was performed in the presence of 22.5 pM [^125I]-angiotensin II [manufactured by PerkinElmer, USA], 9 μg of AT1 membrane and test compound in 100 μL (total reaction volume) of reaction buffer (50 mM Tris (pH 7.4), 10 mM MgCl2 supplemented or not supplemented with 0.3 mg/mL fatty acid-free bovine serum albumin [manufactured by Wako Pure Chemical Industries, Ltd., Japan]). The reaction mixture was incubated in 96 well polypropylene plate for 1 hr at room temperature, and the reaction was quenched by rapid filtration (96 well cell harvester) through a GF/C filter treated with wash buffer (50 mM Tris (pH 7.4)). Subsequently, the filter was washed 5 times with 0.3 mL of ice-cooled wash buffer. The filter was air-dried, and [^125I]-angiotensin II binding radioactivity was assayed with Top Count scintillation counter. Total binding was measured in the presence of 1% DMSO and nonspecific binding was measured in the presence of 1 μM CV-11974. The binding data was analyzed by GraphPad Prism program and the IC50 value (compound concentration showing 50% of the maximum value of inhibition percent) of the test compound was calculated.

[2] = target: T2, PPARγ (Homo sapiens, UniProt P37231); assay: Evaluation of PPARγ activating action (luciferase reporter in PPARγ:RXRα:4ERPP/CHO-K1 cells); assay type: cell-based; details: CHO-K1, 24 h, read-out: PPARγ activating action (activation % (10^−6 M))
T2 construct: expressed in transfected cells; host or cells: CHO-K1
T2 sequence (P37231 1-477 isoform P37231-2): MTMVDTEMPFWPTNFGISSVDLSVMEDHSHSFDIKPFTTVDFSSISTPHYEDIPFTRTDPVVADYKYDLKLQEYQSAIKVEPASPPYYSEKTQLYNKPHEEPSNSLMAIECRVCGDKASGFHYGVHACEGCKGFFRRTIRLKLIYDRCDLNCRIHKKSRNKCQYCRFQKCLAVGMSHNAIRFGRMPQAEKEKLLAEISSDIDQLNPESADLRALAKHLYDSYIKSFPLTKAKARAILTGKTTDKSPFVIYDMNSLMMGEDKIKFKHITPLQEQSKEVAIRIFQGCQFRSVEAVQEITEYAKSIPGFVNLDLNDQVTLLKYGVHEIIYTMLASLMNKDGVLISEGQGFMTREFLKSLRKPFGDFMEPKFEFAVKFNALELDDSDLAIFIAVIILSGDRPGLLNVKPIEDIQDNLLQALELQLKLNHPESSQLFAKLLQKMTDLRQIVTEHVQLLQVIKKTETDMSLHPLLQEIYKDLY
T2 sequence (P19793 1-462 partner): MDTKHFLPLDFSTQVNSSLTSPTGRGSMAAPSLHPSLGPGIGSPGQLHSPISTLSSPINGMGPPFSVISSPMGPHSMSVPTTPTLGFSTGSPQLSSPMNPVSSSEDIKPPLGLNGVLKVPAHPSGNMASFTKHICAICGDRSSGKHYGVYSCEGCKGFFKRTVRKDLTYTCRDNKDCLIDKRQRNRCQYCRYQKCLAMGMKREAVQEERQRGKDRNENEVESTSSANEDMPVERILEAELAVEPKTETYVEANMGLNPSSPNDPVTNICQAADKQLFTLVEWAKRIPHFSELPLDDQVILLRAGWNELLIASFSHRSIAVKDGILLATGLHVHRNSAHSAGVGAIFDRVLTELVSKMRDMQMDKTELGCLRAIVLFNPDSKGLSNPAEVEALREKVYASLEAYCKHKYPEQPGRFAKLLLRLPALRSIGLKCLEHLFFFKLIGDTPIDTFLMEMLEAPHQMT
Protocol: PPARγ:RXRα:4ERPP/CHO-K1 cells obtained in the following Reference Example 5 were cultured in F12 medium [manufactured by INVITROGEN, USA] containing 10% fetal bovine serum [manufactured by MOREGATE, Australia], seeded in a 96-well half area white plate [manufactured by Corning Coster Corporation, USA] at the density of 5×10^3 cells/well and cultured in a CO2 gas incubator at 37° C. overnight.
Then the medium was removed from the 96-well half area white plate, 45 μl of Ham's F12 medium containing 0.1% fatty acid-free bovine serum albumin (BSA) and 5 μl of test compound were added, and the cells were cultured in a CO2 gas incubator at 37° C. for 1 day. The medium was removed and 20 μl of PicaGene 7.5 [manufactured by TOYO INK MFG. CO., LTD.,.Japan] diluted 2-fold with HBSS (HANKS' BALANCED SALT SOLUTION) [manufactured by BIO WHITTAKER, USA] was added. After stirring, the luciferase activity was determined using 1420 ARVO Multilabel Counter [manufactured by PerkinElmer, USA].
The percent (%) was calculated from the luciferase activity of each test compound when the luciferase activity of the control compound (compound X: 5-[3-(4-{[2-(2-furyl)-5-methyl-1,3-oxazol-4-yl]methoxy}-3-methoxyphenyl)propyl]-1,3-oxazolidine-2,4-dione) (1 μM) was 100% and that of the test compound non-administration group was 0%.
A CHO-K1 cell cultured in a 150 cm^2 cell culture flask [manufactured by Corning Costar Corporation, USA] containing Ham's F12 medium [manufactured by INVITROGEN, USA] supplemented with 10% fetal bovine serum [manufactured by INVITROGEN, USA] was scraped by treating with 0.5 g/L trypsin-0.2 g/L EDTA (ethylenediaminetetraacetic acid) [manufactured by Life Technologies, Inc., USA], and then the cell was washed with PBS (Phosphate-buffered saline) [manufactured by INVITROGEN, USA], centrifuged (1000 rpm, 5 minutes) and suspended in PBS. Subsequently, DNA was introduced into the cell under the conditions shown below using GENE PULSER [manufactured by Bio-Rad Laboratories, USA].
Namely, to a cuvette having a 0.4 cm gap were added 8×10^6 cells and 10 μg of plasmid pVgRXR2-hPPARγ obtained in Reference Example 4 and 10 μg of reporter plasmid pGL3-4ERPP-TK neo obtained in Reference Example 3, which was subjected to electroporation at the voltage of 0.25 kV under the capacitance of 960 μF. Subsequently, the cell was transferred into a F12 medium containing 10% fetal bovine serum and cultured for 24 hours, and then the cell was scraped again and centrifuged, and then suspended in Ham's F12 medium containing 10% fetal bovine serum supplemented with 500 μg/ml of Geneticin [manufactured by INVITROGEN, USA] and 250 μg/ml of Zeocin [manufactured by INVITROGEN, USA]. The obtained suspension was diluted to the density of 10^4 cells/ml and inoculated in a 96-well plate [manufactured by Corning Costar Corporation, USA], which was cultured in a CO2 gas incubator at 37° C., whereby obtaining a Geneticin- and Zeocin-resistant transformant.
Subsequently, after the transformant cell line thus obtained was cultured in a 24-well plate [manufactured by Corning Costar Corporation, USA], a cell line in which the luciferase was expressed and induced, i.e., PPARγ:RXRα:4ERPP/CHO-K1 cell was selected by the addition of 10 μM pioglitazone hydrochloride.

[3] = test compound 10^−6 M, luciferase activity relative to control compound X (1 μM) = 100%, non-administration group = 0%

IC50 [1] [nM] | activation at 1 µM [2, 3] [%] | SMILES | activation at 1 µM [2] [%]
2.6 | 31.8 | CCCc1nc(C)c(-c2ccc(OCC3CC3)nc2)c(=O)n1Cc1ccc(-c2ccccc2-c2noc(=O)[nH]2)cc1F [Example 501, 5-[6-(cyclopropylmethoxy)pyridin-3-yl]-3-{[3-fluoro-2′-(5-oxo-4,5-dihydro-1,2,4-oxadiazol-3-yl)biphenyl-4-yl]methyl}-6-methyl-2-propylpyrimidin-4(3H)-one] | –
2.2 | 22.6 | CCCc1nc(C)n(-c2ccc(OC(C)C#N)cc2)c(=O)c1Cc1ccc(-c2ccccc2-c2noc(=O)[nH]2)cc1 (stereo not shown) [Example 327, 2-{4-[2-methyl-6-oxo-5-{[2′-(5-oxo-4,5-dihydro-1,2,4-oxadiazol-3-yl)biphenyl-4-yl]methyl}-4-propylpyrimidin-1(6H)-yl]phenoxy}propanenitrile] | –
1.8 | 68.8 | CCCCc1nc(C)n(CC2CCCCC2)c(=O)c1Cc1ccc(-c2ccccc2-c2noc(=O)[nH]2)cc1 [Example 48, 6-butyl-3-(cyclohexylmethyl)-2-methyl-5-{[2′-(5-oxo-4,5-dihydro-1,2,4-oxadiazol-3-yl)biphenyl-4-yl]methyl}pyrimidin-4(3H)-one] | –
1.8 | 17 | CCCc1nc(C)n(-c2cc(F)c3c(c2)CC(C)(C)O3)c(=O)c1Cc1ccc(-c2ccccc2-c2noc(=O)[nH]2)cc1 [Example 275, 3-(7-fluoro-2,2-dimethyl-2,3-dihydro-1-benzofuran-5-yl)-2-methyl-5-{[2′-(5-oxo-4,5-dihydro-1,2,4-oxadiazol-3-yl)biphenyl-4-yl]methyl}-6-propylpyrimidin-4(3H)-one] | –
2.1 | 20 | CCCc1nc(C)n(C=C(C)C)c(=O)c1Cc1ccc(-c2ccccc2-c2noc(=O)[nH]2)cc1 [Example 323, 2-methyl-3-(2-methylprop-1-en-1-yl)-5-{[2′-(5-oxo-4,5-dihydro-1,2,4-oxadiazol-3-yl)biphenyl-4-yl]methyl}-6-propylpyrimidin-4(3H)-one] | –
2.1 | 52.9 | CCCCc1nc(C)c(C(O)c2ccccc2)c(=O)n1Cc1ccc(-c2ccccc2-c2noc(=O)[nH]2)cc1 (stereo not shown) [Example 452, 2-butyl-5-[hydroxy(phenyl)methyl]-6-methyl-3-{[2′-(5-oxo-4,5-dihydro-1,2,4-oxadiazol-3-yl)biphenyl-4-yl]methyl}pyrimidin-4(3H)-one] | –
1.5 | 27.6 | CCCc1nc(C)n(-c2ccc3c(c2)CC(C)O3)c(=O)c1Cc1ccc(-c2ccccc2-c2noc(=O)[nH]2)cc1 (stereo not shown) [Example 235, 2-methyl-3-(2-methyl-2,3-dihydro-1-benzofuran-5-yl)-5-{[2′-(5-oxo-4,5-dihydro-1,2,4-oxadiazol-3-yl)biphenyl-4-yl]methyl}-6-propylpyrimidin-4(3H)-one] | –
3.4 | 31 | CCCc1nc(C)n(OC2CCOCC2)c(=O)c1Cc1ccc(-c2ccccc2-c2noc(=O)[nH]2)cc1 [Example 379, 2-methyl-5-{[2′-(5-oxo-4,5-dihydro-1,2,4-oxadiazol-3-yl)biphenyl-4-yl]methyl}-6-propyl-3-(tetrahydro-2H-pyran-4-yloxy)pyrimidin-4(3H)-one] | –
1.8 | 47.1 | CCCCc1nc(C)n(CCCC)c(=O)c1Cc1ccc(-c2ccccc2-c2noc(=O)[nH]2)cc1 [Example 294, 3,6-dibutyl-2-methyl-5-{[2′-(5-oxo-4,5-dihydro-1,2,4-oxadiazol-3-yl)biphenyl-4-yl]methyl}pyrimidin-4(3H)-one] | –

SMILES | IC50 [1] [nM] | activation at 1 µM [2, 3] [%] | activation at 1 µM [2] [%]
CCCc1nc(CC)n(-c2ccc(OC)cc2)c(=O)c1Cc1ccc(-c2ccccc2-c2noc(O)n2)cc1 [Example 313, 2-ethyl-3-(4-methoxyphenyl)-5-{[2′-(5-oxo-4,5-dihydro-1,2,4-oxadiazol-3-yl)biphenyl-4-yl]methyl}-6-propylpyrimidin-4(3H)-one potassium salt] | 1.5 | – | 31
CCCCc1nc(CC)n(Cc2ccccc2)c(=O)c1Cc1ccc(-c2ccccc2-c2noc(=O)[nH]2)cc1 [Example 105, 3-benzyl-6-butyl-2-ethyl-5-{[2′-(5-oxo-4,5-dihydro-1,2,4-oxadiazol-3-yl)biphenyl-4-yl]methyl}pyrimidin-4(3H)-one] | 1.9 | – | 64.1
